Assay [1] concerns K. pneumoniae RKI 68/16. The format is cell-based, Klebsiella pneumoniae. The protocol: (§1) The strains that were used in this study (Table 2 and Table S1) were cultivated at 37 °C in cation-adjusted Mueller–Hinton broth (CAMB) in Erlenmeyer flasks, or on the same medium with agar in Petri dishes. Exceptionally, Mycobacterium smegmatis was cultivated at 37 °C in brain heart infusion (BHI) medium that was supplemented with 1% Tween-80 in Erlenmeyer flasks, or on the same medium lacking detergent but with agar in Petri dishes. Strains listed with Robert Koch Institute (RKI) strain numbers are clinical isolates from the RKI strain collection originating from hospitalized patients in Germany. The remaining strains originated from the Sanofi strain collection and they were originally purchased from the American Type Culture Collection or the German Collection of Microorganisms and Cell Cultures. Meropenem/colistin-resistant strains were maintained, as described above, with the appropriate antibiotic added at levels below the minimal inhibitory concentration (MIC).
(§2) The MIC values were determined in 384-well microtiter plates with an assay volume of 20 µL. Immediately before each assay, the cultures of test organisms (bacteria grown for 18 h, Candida albicans and M. smegmatis grown for 48 h) were diluted with the appropriate medium to a density of 1 × 10^6 cells/mL (C. albicans), 1 × 10^5 cells/mL (M. smegmatis) or 5 × 10^5 cells per mL (other species). […] We transferred 2-µL aliquots from this dilution series to new 384-well microtiter plates while using a CyBio-Well 384-channel automated pipettor (Analytic Jena, Jena, Germany) and added 18 µL of the diluted suspension of each test species using a Viafill reagent dispenser (Integra), thus reducing the final peptide concentration 10-fold to the range 1024–0.03125 µg/mL. […] The growth of M. smegmatis was measured using the BacTiter-Glo luminescence test system (Promega, Madison, WI, USA). The growth of the other species was determined by visual inspection of the microtiter plate and turbidimetry based on the optical density at 600 nm (OD600). The MIC was defined as the peptide concentration at which no bacterial growth was observed. We supplemented the test medium with either 150 mM NaCl or 1.25 mM CaCl2 to represent monovalent and divalent cations to simulate physiological conditions.

Assay [2] relates to K. pneumoniae RKI 268/15. The format is cell-based, Klebsiella pneumoniae. The protocol:
as §1, §2

Assay [3] deals with E. coli RKI 6A-6. Nature of the assay: microbe, parasite or virus in culture. It is filed as cell-based, Escherichia coli. The procedure:
as §1, §2

Assay [4] relates to Staphylococcus epidermidis ATCC 35984. The format is cell-based. The procedure: as §1, §2
The test system of assay [5] is Klebsiella oxytoca RKI 52/07. It is filed as cell-based. The procedure:
as §1, §2

The subject of assay [6] is Escherichia coli D31. The format is cell-based. The procedure:
as §1, §2

For assay [7], the system named is Proteus mirabilis DSM 4479. It is filed as cell-based. The procedure: as §1, §2
For assay [8], the system named is Enterococcus faecium DSM 17050. The format is cell-based. The protocol: as §1, §2
Assay [9] deals with Pseudomonas aeruginosa ATCC 27853. It is filed as cell-based. The protocol:
as §1, §2

Assay [10] has as its system Staphylococcus aureus ATCC 25923. It is filed as cell-based. The procedure: as §1, §2
Assay [11] relates to Listeria monocytogenes DSM 20600. The format is cell-based. The procedure: as §1, §2
The test system of assay [12] is Mycobacterium smegmatis ATCC 607. The format is cell-based. The procedure:
as §1, §2

The subject of assay [13] is Canida albicans FH2173. It is filed as cell-based, Candida albicans. As to conditions: 24 h. The procedure: as §1, §2
The subject of assay [14] is A. baumannii RKI 19/09. Nature of the assay: microbe, parasite or virus in culture. It is filed as cell-based, Acinetobacter baumannii. The procedure: as §1, §2
For assay [15], the system named is S. aureus ATCC 33592. The format is cell-based, Staphylococcus aureus. The procedure: as §1, §2
Assay [16] relates to E. coli ATCC 25922. The protocol:
as §1
The MIC values were determined in 384-well microtiter plates with an assay volume of 20 µL. Immediately before each assay, the cultures of test organisms (bacteria grown for 18 h, Candida albicans and M. smegmatis grown for 48 h) were diluted with the appropriate medium to a density of 1 × 10^6 cells/mL (C. albicans), 1 × 10^5 cells/mL (M. smegmatis) or 5 × 10^5 cells per mL (other species). The peptides were dissolved in sterile water at a concentration of 10.24 mg/mL and a 1:2 dilution series was prepared in a 384-well microtiter plate to achieve the concentration range 10,240–0.3125 µg/mL in a volume of 50 µL. We transferred 2-µL aliquots from this dilution series to new 384-well microtiter plates while using a CyBio-Well 384-channel automated pipettor (Analytic Jena, Jena, Germany) and added 18 µL of the diluted suspension of each test species using a Viafill reagent dispenser (Integra), thus reducing the final peptide concentration 10-fold to the range 1024–0.03125 µg/mL. The cells were incubated at 37 °C and 85% relative humidity, shaking at 180 rpm for 48 h (M. smegmatis), 24 h (C. albicans) or 18 h (other species). The growth of M. smegmatis was measured using the BacTiter-Glo luminescence test system (Promega, Madison, WI, USA). The growth of the other species was determined by visual inspection of the microtiter plate and turbidimetry based on the optical density at 600 nm (OD600). […] We supplemented the test medium with either 150 mM NaCl or 1.25 mM CaCl2 to represent monovalent and divalent cations to simulate physiological conditions.

In assay [17] the test system is E. coli RKI 131/08. Nature of the assay: microbe, parasite or virus in culture. The format is cell-based, Escherichia coli. The protocol: as §1, §2
The subject of assay [18] is Enterobacter cloacae RKI 146/09. In words: microbe, parasite or virus in culture. It is filed as cell-based. The procedure:
as §1, §2

Assay [19] concerns K. pneumoniae RKI 93/10. Nature of the assay: microbe, parasite or virus in culture. The format is cell-based, Klebsiella pneumoniae. The procedure:
as §1, §2

Assay [20] deals with Acinetobacter baumannii ATCC 19606. The format is cell-based. The protocol:
as §1, §2

In assay [21] the test system is Klebsiella pneumoniae DSM 30104. The format is cell-based. The procedure:
as §1, §2

Assay [22] deals with Stenotrophomonas maltophilia RKI 136/09. The format is cell-based. Particulars: n=3. The procedure:
as §1, §2

Setting [23] is: CAMB + 0.075 µg/mL colistin (Col), n=3.
The mark [24] stands for this setting: CAMB adjusted to 1.25 mM CaCl2, n=3.
Where [25] appears, read: CAMB adjusted to 150 mM NaCl, n=3.

Like-named read-outs stand apart in the source and are kept apart here. No end group written: not given here.

The values that follow come from publication PMC7284870, “Antimicrobial Peptides from Rat-Tailed Maggots of the Drone Fly Eristalis tenax Show Potent Activity against Multidrug-Resistant Gram-Negative Bacteria” (Microorganisms, 2020).

For the substance “GFLKKIGKKLEGAVQRTRDATIQTIAVAQAAANVAATAKQG [EtCec1]”, the MIC was 64 mg/L in [1] (RKI 68/16, 18 h); 64 mg/L in assay [2] (RKI 268/15, 18 h); 32 mg/L in assay [3] (RKI 6A-6, 18 h); over 1024 mg/L in assay [4] (ATCC 35984, 18 h); 16 mg/L in assay [5] (18 h); 16 mg/L in assay [6] (D31, 18 h). Besides, the MIC in [7] (DSM 4479, 18 h) is over 1024 mg/L; in [8] (DSM 17050, 18 h), over 1024 mg/L; in [9] (ATCC 27853, 18 h), 256 mg/L; in assay [10] (ATCC 25923, 18 h), over 1024 mg/L; in assay [11] (DSM 20600, 18 h), over 1024 mg/L; in assay [12] (ATCC 607, 48 h) it was over 1024 mg/L. Further, the MIC in assay [13] was over 1024 mg/L; in assay [14] (RKI 19/09, 18 h) it was 16 mg/L; in [15] (ATCC 33592, 18 h) it was over 1024 mg/L; in assay [16] (ATCC 25922, 18 h) it was 16 mg/L.

With “GFLKKVGKKLEGASDLTRDATIQTIAVAQAAANVAATAKQG [EtCec3]”, the MIC in assay [17] (RKI 131/08, 18 h) was over 1024 mg/L; in [18] (RKI 146/09, 18 h), over 1024 mg/L; in [19] (RKI 93/10, 18 h) it was over 1024 mg/L; in assay [4] (ATCC 35984, 18 h) it was over 1024 mg/L; in [5] (18 h), over 1024 mg/L; in assay [7] (DSM 4479, 18 h) it was over 1024 mg/L. For the same substance, the MIC in assay [8] (DSM 17050, 18 h) is over 1024 mg/L; in assay [20] (ATCC 19606, 18 h), over 1024 mg/L; in assay [9] (ATCC 27853, 18 h), over 1024 mg/L; in assay [10] (ATCC 25923, 18 h) it was over 1024 mg/L; in assay [11] (DSM 20600, 18 h), over 1024 mg/L; in assay [12] (ATCC 607, 48 h), over 1024 mg/L. The MIC in assay [21] (DSM 30104, 18 h) was over 1024 mg/L; in [13], over 1024 mg/L; in assay [14] (RKI 19/09, 18 h), over 1024 mg/L; in assay [15] (ATCC 33592, 18 h) it was over 1024 mg/L; in assay [16] (ATCC 25922, 18 h), over 1024 mg/L.

In the case of “GWLRDFGKRIERTGQNIRDATIQTIGIAQEAANVAATLKG [EtCec2]”, the MIC amounted to 256 mg/L in [1] (Table 4, CAMB, n=3); 256 mg/L in assay [2] (Table 4, CAMB, n=3); 256 mg/L in assay [3] (Table 4, CAMB, n=3); 2 mg/L in assay [17] (setting [23]); 64 mg/L in assay [17] (setting [24]); 32 mg/L in [17] (setting [25]). For the same substance, the MIC in assay [17] (Table 4, CAMB, n=3) amounted to 32 mg/L; in [18] (setting [23]), 64 mg/L; in assay [18] (setting [24]), 128 mg/L; in [18] (setting [25]) it was 128 mg/L; in assay [18] (Table 4, CAMB, n=3), 64 mg/L; in [19] (setting [23]), 16 mg/L. Also, the MIC is 256 mg/L in assay [19] (setting [24]); 256 mg/L in [19] (setting [25]); 128 mg/L in [19] (Table 4, CAMB, n=3); over 1024 mg/L in assay [4] (CAMB, 18 h, 37 °C, n = 4); 2 mg/L in assay [5] (setting [23]); 32 mg/L in assay [5] (Table 5, CAMB, n=3). Besides, the MIC in assay [6] (CAMB, 18 h, 37 °C, n = 4) is 16 mg/L; in assay [7] (CAMB, 18 h, 37 °C, n = 4) it was over 1024 mg/L; in assay [8] (CAMB, 18 h, 37 °C, n = 4) it was over 1024 mg/L; in assay [22] (CAMB adjusted to 150 mM NaCl), 256 mg/L; in assay [22] (Table 4, CAMB), 512 mg/L; in assay [20] (setting [23]), 16 mg/L. The MIC was 64 mg/L in [20] (setting [24]); 8 mg/L in assay [20] (setting [25]); 32 mg/L in assay [20] (CAMB, 18 h, 37 °C, n = 4); 32 mg/L in [20] (Table 4, CAMB, n=3); over 1024 mg/L in [9] (CAMB, 18 h, 37 °C, n = 4); over 1024 mg/L in assay [10] (CAMB, 18 h, 37 °C, n = 4). Also, the MIC in assay [11] (CAMB, 18 h, 37 °C, n = 4) is over 1024 mg/L; in assay [12] (BHI, 48 h, 37 °C, BacTiter-Glo, n = 4), over 1024 mg/L; in assay [21] (setting [23]), 2 mg/L; in [21] (setting [24]), 32 mg/L; in assay [21] (setting [25]), 16 mg/L; in assay [21] (CAMB, 18 h, 37 °C, n = 4) it was 32 mg/L. In addition, the MIC is 32 mg/L in assay [21] (Table 4, CAMB, n=3); over 1024 mg/L in [13] (CAMB, 37 °C, n = 4); 4 mg/L in assay [14] (setting [23]); 16 mg/L in [14] (setting [25]); 16 mg/L in [14] (Table 4, CAMB, n=3); over 1024 mg/L in assay [15] (CAMB, 18 h, 37 °C, n = 4). Moreover, the MIC was 4 mg/L in assay [16] (setting [23]); 128 mg/L in assay [16] (setting [24]); 64 mg/L in [16] (setting [25]); 64 mg/L in assay [16] (CAMB, 18 h, 37 °C, n = 4); 64 mg/L in [16] (Table 4, CAMB, n=3).

As to colistin [reference compound], the MIC was 0.5 mg/L in assay [17] (Table 5, CAMB, n=3); 2 mg/L in assay [18] (Table 5, CAMB, n=3); 1 mg/L in assay [19] (Table 5, CAMB, n=3); 2 mg/L in [5] (Table 5, CAMB, n=3); 1 mg/L in assay [20] (Table 5, CAMB, n=3); 0.5 mg/L in assay [21] (Table 5, CAMB, n=3). In addition, the MIC in assay [14] (Table 5, CAMB, n=3) turned out to be 0.5 mg/L; in [16] (Table 5, CAMB, n=3) it was 0.5 mg/L.
